Test results from patent publication US12617831B2 (UNIVERSITE D'ANGERS, priority 2019, dated 2026).

What was measured:
human GLP-2r = biological target: T1, human GLP-2r (Homo sapiens, UniProt O95838); assay: Cyclic AMP assay (FRET, H74 probe), HEK-293 transfected with human GLP-2r; format: cell-based; conditions: HEK 293 transfected only with human GLP-2r, 10^-9 M, 30 min (FIG. 17)
T1 construct: host or cells: HEK-293
T1 sequence (O95838 1-553): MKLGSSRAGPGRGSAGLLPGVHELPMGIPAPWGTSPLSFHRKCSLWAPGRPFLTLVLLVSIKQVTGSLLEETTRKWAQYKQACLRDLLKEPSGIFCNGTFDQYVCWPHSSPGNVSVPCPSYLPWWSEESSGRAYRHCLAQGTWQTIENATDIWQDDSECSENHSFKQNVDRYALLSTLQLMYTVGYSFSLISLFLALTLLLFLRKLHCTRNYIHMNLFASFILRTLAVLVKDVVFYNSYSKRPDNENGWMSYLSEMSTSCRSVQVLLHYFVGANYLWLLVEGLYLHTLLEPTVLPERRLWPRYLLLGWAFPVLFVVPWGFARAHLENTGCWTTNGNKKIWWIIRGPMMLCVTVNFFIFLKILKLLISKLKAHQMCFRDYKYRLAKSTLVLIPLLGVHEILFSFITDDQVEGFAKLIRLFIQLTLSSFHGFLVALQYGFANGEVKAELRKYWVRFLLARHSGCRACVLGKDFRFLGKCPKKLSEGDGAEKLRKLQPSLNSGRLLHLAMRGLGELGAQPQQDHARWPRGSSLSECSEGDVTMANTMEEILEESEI
Protocol: Human HEK-293 cells were plated at a density of 2×10^5 cells/cm^2 in 4 well microslides (ibidi GmbH, Martinsried, Germany). […] Jalink (Netherland Cancer Institute, Amsterdam, Netherland). […] The image acquisition was performed with a 63 X, 1.4 N.A. oil immersion objective and a Hybrid® detector (Leica) and images were collected after 30 minutes. Donor excitation was made with a 458 nm Ar laser, donor emission was collected between 460-505 nm and acceptor emission between 520-600 nm by setting the SP8 spectrometer accordingly. FRET was expressed as the ratio between donor and acceptor signals.

Murine Raw 264.7 cells = assay: Raw264.7 cell-mediated osteoclast formation in vitro (Example 2); format: cell-based; conditions: 10 ng/ml soluble murine RANKL, 110 h, TRAcP staining
Excerpt: TRAcP positive cells, with more than three nuclei, were identified as osteoclasts.

[1] = test system: ovariectomy-induced bone loss in mice; assay: Trabecular bone microarchitecture, fifth lumbar vertebra, ovariectomized mice; format: in vivo; conditions: OVX mice, L5, 25 nmoles/kg/day, vs vehicle
Protocol: At 16 weeks of age, ALZET osmotic pumps (model number 2006, Durect Corp., Cupertino, CA) filled with the below saline or peptide were implanted subcutaneously between the two scapula under general anesthesia in 32 mice. Successful filling of pumps was verified by weighting the pump before and after filling. At 20 weeks of age, ALZET osmotic pumps were replaced by similar pumps to ensure delivery for four new weeks. […] This dose and regimen of zoledronic acid was equivalent to the 5 mg infusion approved for the treatment of post-menopausal osteoporosis in humans. Analyses of vertebral bodies of the fifth lumbar vertebra (L5) were performed with a Nanotom nanotomograph (Phoenix, GE, USA) operated at 85 kV, 220 μA, 1000 ms integration time. The isotropic pixel size was fixed at 4 μm, the rotation step at 0.25° and exposure was done with a 0.1 mm copper filter. Each 3D reconstruction image dataset was binarized using global thresholding. Trabecular volume of interest was computerized on coronal sections of the L5 vertebral body. Trabecular VOI was spread over the entire vertebral body excluding the first and last 80 μm from the anterior and posterior cortical wall. All microCT/NanoCT parameters were determined according to guidelines and nomenclature proposed by the American Society for Bone and Mineral Research (Bouxsein et al., 2010).

Compound | intracellular levels of cAMP (human GLP-2r) | IC50 (Murine Raw 264.7 cells) [nM] | reduction in trabecular spacing [1] [%]
CC[C@H](C)[C@H](NC(=O)[C@H](CO)NC(=O)[C@H](CCSC)NC(=O)[C@H](CC(=O)O)NC(=O)[C@H](CO)NC(=O)CNC(=O)[C@H](Cc1ccccc1)NC(=O)[C@H](CO)NC(=O)CNC(=O)[C@H](CCC(=O)O)NC(=O)CNC(=O)[C@@H](N)Cc1c[nH]cn1)C(=O)N[C@@H](C)C(=O)N[C@@H](CC(C)C)C(=O)N[C@@H](CC(=O)O)C(=O)N[C@@H](CCCCN)C(=O)N[C@@H](CC(C)C)C(=O)N[C@@H](C)C(=O)N[C@@H](C)C(=O)N[C@@H](CCCNC(=N)N)C(=O)N[C@@H](CC(=O)O)C(=O)N[C@@H](Cc1ccccc1)C(=O)N[C@H](C(=O)N[C@@H](CC(N)=O)C(=O)N[C@@H](Cc1c[nH]c2ccccc12)C(=O)N[C@@H](CC(C)C)C(=O)N[C@@H](CC(C)C)C(=O)N[C@@H](CCC(N)=O)C(=O)N[C@H](C(=O)N[C@@H](CCCCN)C(=O)N[C@H](C(=O)N[C@H](C(=O)N[C@@H](CC(=O)O)C(=O)O)[C@@H](C)O)[C@@H](C)CC)[C@@H](C)O)C(C)C [GL-0001] | increased intracellular levels of cAMP | 0.0182 ± 0.0056 | 
CC[C@H](C)[C@H](NC(=O)[C@H](CO)NC(=O)[C@H](Cc1ccccc1)NC(=O)[C@H](CC(=O)O)NC(=O)[C@H](CO)NC(=O)CNC(=O)[C@H](Cc1ccccc1)NC(=O)[C@H](CO)NC(=O)CNC(=O)[C@H](CCC(=O)O)NC(=O)CNC(=O)[C@@H](N)Cc1c[nH]cn1)C(=O)N[C@@H](C)C(=O)N[C@@H](CC(C)C)C(=O)N[C@@H](CC(=O)O)C(=O)N[C@@H](CCCCN)C(=O)N[C@@H](CC(C)C)C(=O)N[C@@H](C)C(=O)N[C@@H](C)C(=O)N[C@@H](CCCNC(=N)N)C(=O)N[C@@H](CC(=O)O)C(=O)N[C@@H](Cc1ccccc1)C(=O)N[C@H](C(=O)N[C@@H](CC(N)=O)C(=O)N[C@@H](Cc1c[nH]c2ccccc12)C(=O)N[C@@H](CC(C)C)C(=O)N[C@@H](CC(C)C)C(=O)N[C@@H](CCC(N)=O)C(=O)N[C@H](C(=O)N[C@@H](CCCCN)C(N)=O)[C@@H](C)O)C(C)C [GL-0007] |  |  | 17
